According to paper PMC5740388, “In Vitro Antibacterial Properties of Cefiderocol, a Novel Siderophore Cephalosporin, against Gram-Negative Bacteria” (Antimicrobial Agents and Chemotherapy, 2017):
Values after ≈ are worked out from the molar mass of the structure shown. Where two headings read alike, the source gives them in different places.

Experiments:
[1] = system: T1, PBP1a and PBP1b of A. baumannii ATCC 17978 (not separated); assay: competition with Bocillin FL for PBPs; assay type: binding, Acinetobacter baumannii; conditions: covalent; joint value for PBP1a and PBP1b
T1 construct: gene ponA; one joint IC50 for PBP1a and PBP1b
Description: competition with Bocillin FL for PBPs on PBP1a and PBP1b of A. baumannii ATCC 17978 (not separated)

[2] = target: T2, PBP2 of A. baumannii ATCC 17978 (Acinetobacter baumannii, UniProt D0C8Z9); assay: competition with Bocillin FL for PBPs; assay type: binding; conditions: covalent
T2 construct: gene mrdA
T2 sequence (D0C8Z9 1-672): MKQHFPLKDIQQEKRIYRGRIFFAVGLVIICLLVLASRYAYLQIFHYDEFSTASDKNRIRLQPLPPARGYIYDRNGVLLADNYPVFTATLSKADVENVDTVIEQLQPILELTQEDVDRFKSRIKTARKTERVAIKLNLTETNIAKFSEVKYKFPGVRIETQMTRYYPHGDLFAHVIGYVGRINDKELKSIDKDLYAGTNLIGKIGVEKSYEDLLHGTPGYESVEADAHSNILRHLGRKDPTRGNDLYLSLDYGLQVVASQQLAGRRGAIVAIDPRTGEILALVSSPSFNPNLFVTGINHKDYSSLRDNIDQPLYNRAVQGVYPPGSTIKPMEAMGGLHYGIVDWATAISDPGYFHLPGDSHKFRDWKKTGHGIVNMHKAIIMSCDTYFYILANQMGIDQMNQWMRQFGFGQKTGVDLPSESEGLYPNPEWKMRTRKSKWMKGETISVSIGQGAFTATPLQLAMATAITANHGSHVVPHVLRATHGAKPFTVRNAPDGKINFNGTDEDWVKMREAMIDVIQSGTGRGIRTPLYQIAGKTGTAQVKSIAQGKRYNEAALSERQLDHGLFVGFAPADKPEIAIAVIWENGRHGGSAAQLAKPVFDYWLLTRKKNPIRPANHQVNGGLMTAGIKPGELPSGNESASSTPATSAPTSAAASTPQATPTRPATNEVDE
Description: competition with Bocillin FL for PBPs on PBP2 of A. baumannii ATCC 17978

[3] = target: T3, PBP1b of K. pneumoniae SR22291 (Klebsiella pneumoniae, UniProt A0ACD7TXF1); assay: competition with […]benzylpenicillin for PBPs; assay type: binding; conditions: covalent
T3 construct: gene mrcB
T3 sequence (A0ACD7TXF1 1-850): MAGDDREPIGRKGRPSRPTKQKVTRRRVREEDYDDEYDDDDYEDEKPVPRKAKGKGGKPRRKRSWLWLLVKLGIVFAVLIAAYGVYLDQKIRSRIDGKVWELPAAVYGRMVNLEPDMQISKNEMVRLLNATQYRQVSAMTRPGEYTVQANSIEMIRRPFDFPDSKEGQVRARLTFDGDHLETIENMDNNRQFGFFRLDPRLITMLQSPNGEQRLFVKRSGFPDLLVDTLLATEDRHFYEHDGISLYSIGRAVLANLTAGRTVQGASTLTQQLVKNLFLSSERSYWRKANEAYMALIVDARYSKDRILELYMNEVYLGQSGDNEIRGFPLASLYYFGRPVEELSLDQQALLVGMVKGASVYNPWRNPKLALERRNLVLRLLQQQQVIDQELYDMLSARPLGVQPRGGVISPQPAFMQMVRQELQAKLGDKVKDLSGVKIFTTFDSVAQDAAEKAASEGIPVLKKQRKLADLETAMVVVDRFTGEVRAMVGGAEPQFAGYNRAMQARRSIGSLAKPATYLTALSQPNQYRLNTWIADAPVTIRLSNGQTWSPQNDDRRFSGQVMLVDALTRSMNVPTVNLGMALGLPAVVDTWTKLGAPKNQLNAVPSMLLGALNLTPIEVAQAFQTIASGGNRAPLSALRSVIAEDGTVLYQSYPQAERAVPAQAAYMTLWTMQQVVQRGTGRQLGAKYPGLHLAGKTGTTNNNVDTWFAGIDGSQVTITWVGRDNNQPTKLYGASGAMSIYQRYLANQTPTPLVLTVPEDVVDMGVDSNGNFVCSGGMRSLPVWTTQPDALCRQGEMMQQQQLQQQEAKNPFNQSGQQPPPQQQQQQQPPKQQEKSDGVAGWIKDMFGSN

[4] = target: T4, PBP4 of P. aeruginosa ATCC 27853 (Pseudomonas aeruginosa, UniProt Q9HZG1); assay: competition with […]benzylpenicillin for PBPs; assay type: binding; conditions: covalent; read-out: IC50 (μg/ml) / P. aeruginosa ATCC 27853 / Cefiderocol
T4 construct: gene PA3047
T4 sequence (Q9HZG1 entry or part of it): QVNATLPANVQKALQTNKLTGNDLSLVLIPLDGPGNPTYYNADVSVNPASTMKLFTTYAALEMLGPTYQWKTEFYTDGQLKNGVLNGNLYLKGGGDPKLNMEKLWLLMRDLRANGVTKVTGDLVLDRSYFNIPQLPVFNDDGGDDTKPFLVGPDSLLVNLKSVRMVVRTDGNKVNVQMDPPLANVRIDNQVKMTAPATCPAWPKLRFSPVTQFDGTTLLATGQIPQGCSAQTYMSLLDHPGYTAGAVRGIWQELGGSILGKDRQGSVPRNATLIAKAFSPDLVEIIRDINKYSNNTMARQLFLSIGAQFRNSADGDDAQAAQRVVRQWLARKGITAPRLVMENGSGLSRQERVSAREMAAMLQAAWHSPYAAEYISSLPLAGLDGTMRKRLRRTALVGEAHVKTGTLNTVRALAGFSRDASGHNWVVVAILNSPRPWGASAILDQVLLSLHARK

[5] = target: T5, PBP1a of P. aeruginosa ATCC 27853 (Pseudomonas aeruginosa, UniProt Q07806); assay: competition with […]benzylpenicillin for PBPs; assay type: binding; conditions: covalent
T5 construct: gene mrcA
T5 sequence (Q07806 whole entry): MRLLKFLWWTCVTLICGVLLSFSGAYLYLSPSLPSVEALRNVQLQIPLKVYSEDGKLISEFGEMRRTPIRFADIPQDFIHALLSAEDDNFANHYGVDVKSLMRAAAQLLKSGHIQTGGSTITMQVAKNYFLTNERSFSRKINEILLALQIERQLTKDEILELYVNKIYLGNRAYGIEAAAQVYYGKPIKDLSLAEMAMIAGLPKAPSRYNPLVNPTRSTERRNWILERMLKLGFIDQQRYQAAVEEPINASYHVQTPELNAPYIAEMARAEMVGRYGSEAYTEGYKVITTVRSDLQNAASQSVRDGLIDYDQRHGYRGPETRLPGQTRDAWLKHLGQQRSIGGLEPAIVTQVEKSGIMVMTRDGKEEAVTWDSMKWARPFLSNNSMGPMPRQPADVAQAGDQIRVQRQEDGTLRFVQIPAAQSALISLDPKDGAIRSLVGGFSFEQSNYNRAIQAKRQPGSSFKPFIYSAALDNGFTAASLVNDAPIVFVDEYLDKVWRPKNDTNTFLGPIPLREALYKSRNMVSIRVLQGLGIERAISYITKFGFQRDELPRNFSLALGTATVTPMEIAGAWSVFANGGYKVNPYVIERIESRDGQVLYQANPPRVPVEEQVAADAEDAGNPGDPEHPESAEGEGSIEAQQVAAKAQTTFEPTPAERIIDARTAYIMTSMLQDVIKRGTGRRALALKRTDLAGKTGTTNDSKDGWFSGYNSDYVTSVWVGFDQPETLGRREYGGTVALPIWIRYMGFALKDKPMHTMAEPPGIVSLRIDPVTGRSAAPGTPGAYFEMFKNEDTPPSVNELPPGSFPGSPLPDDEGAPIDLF

[6] = target: T6, PBP3 of P. aeruginosa ATCC 27853 (Pseudomonas aeruginosa, UniProt G3XD46); assay: competition with […]benzylpenicillin for PBPs; assay type: binding; conditions: covalent
T6 construct: gene ftsI
T6 sequence (G3XD46 whole entry): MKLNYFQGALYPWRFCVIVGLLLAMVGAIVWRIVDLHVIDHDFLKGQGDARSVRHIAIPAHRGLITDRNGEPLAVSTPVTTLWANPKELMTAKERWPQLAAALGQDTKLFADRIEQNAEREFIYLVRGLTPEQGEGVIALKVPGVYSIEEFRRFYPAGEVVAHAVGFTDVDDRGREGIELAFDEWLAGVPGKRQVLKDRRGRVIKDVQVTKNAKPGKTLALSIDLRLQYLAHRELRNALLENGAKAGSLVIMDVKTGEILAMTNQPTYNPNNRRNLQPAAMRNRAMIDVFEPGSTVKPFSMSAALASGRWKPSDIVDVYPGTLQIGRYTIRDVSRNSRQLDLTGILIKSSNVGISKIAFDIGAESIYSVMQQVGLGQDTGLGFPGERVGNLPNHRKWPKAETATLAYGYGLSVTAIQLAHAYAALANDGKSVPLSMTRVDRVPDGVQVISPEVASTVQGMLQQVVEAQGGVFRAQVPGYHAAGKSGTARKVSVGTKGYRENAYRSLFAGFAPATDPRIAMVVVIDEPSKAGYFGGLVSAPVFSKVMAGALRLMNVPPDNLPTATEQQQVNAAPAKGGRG

[7] = target: T7, PBP3 of A. baumannii ATCC 17978 (Acinetobacter baumannii, UniProt A0ABX6CK25); assay: competition with Bocillin FL for PBPs; assay type: binding; conditions: covalent
T7 construct: gene ftsI
T7 sequence (A0ABX6CK25 1-610): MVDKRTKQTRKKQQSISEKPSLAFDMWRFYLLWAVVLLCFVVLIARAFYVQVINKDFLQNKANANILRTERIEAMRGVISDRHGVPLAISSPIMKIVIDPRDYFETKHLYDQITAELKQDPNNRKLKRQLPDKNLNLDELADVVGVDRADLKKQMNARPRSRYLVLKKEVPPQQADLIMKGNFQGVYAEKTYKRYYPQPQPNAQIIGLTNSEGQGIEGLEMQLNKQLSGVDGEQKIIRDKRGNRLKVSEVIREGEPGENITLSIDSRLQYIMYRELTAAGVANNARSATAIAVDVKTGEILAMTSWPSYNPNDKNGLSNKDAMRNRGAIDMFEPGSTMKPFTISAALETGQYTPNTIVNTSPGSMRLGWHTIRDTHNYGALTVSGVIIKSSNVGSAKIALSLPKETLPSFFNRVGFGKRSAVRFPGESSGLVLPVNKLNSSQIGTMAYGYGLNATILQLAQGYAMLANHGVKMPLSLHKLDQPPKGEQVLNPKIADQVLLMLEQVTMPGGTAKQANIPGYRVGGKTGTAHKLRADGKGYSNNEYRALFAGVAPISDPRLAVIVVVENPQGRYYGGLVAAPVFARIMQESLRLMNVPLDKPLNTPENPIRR
Description: competition with Bocillin FL for PBPs on PBP3 of A. baumannii ATCC 17978

[8] = read-out: IC50 (μg/ml) / P. aeruginosa ATCC 27853 / Ceftazidime (converted)
[9] = read-out: IC50 (μg/ml) / A. baumannii ATCC 17978 ^a / Cefiderocol (converted)

| Compound | IC50 (μg/ml) / A. baumannii ATCC 17978 ^a / Ceftazidime [1] | IC50 ([2]; read-out: IC50 (μg/ml) / A. baumannii ATCC 17978 ^a / Ceftazidime) | IC50 ([3]; read-out: IC50 (μg/ml) / K. pneumoniae SR22291 / Ceftazidime (converted)) | IC50 [4] | IC50 [5, 8] | IC50 [6, 8] | IC50 ([7]; read-out: IC50 (μg/ml) / A. baumannii ATCC 17978 ^a / Ceftazidime (converted)) | IC50 (μg/ml) / A. baumannii ATCC 17978 ^a / Cefiderocol [1] | IC50 [2, 9] | IC50 ([3]; read-out: IC50 (μg/ml) / K. pneumoniae SR22291 / Cefiderocol (converted)) | IC50 ([5]; read-out: IC50 (μg/ml) / P. aeruginosa ATCC 27853 / Cefiderocol (converted)) | IC50 ([6]; read-out: IC50 (μg/ml) / / Cefiderocol (converted)) | IC50 [7, 9] |
| --- | --- | --- | --- | --- | --- | --- | --- | --- | --- | --- | --- | --- | --- |
| CC(C)(O/N=C(\C(=O)N[C@@H]1C(=O)N2C(C(=O)[O-])=C(C[n+]3ccccc3)CS[C@H]12)c1csc(N)n1)C(=O)O [ceftazidime] | 0.91 µg/mL (≈ 1.66 µM) | > 117 µM | 4.21 µM | > 7.32 µM | 6.62 µM | 0.165 µM | 3.26 µM |  |  |  |  |  |  |
| CC(C)(O/N=C(\C(=O)N[C@@H]1C(=O)N2C(C(=O)[O-])=C(C[N+]3(CCNC(=O)c4ccc(O)c(O)c4Cl)CCCC3)CS[C@H]12)c1csc(N)n1)C(=O)O [cefiderocol] |  |  |  | > 5.32 µM |  |  |  | 1.05 µg/mL (≈ 1.4 µM) | 3.07 µM | 4.65 µM | 1.13 µM | 0.0798 µM | 0.891 µM |
